Here are results for 2 substances from patent US11932673B2, “Sodium channel inhibitors” (priority 2017, dated 2024).

“And” between values parts separate entries of the source, which are not always exact repeats. Identical values can stand only once.

In one test the test system is trypsin. Kind of test: Phage TRF binding assay of KnotBody phage on immobilised biotinylated trypsin. Conditions: EETI-II directly fused to the N-terminus of gene III; TRF. Here is the method: Phage display technology facilitates isolation of binders to any given target from large combinatorial repertoires based on proteins and peptides that can be presented on the surface of filamentous phage^105. In order to isolate functional knottin-antibody fusions from the KnotBody libraries multiple rounds of phage display selections on trypsin (cognate antigen for the EETI-II donor) were carried out. Phage particles were prepared by rescuing KnotBody libraries using trypsin cleavable helper phage^102,106 Two rounds of phage display selections were performed on 10 μg/ml biotinylated trypsin immobilised on Streptavidin (for Round-1) or Neutravidin (for round-2) coated Maxisorp™ immunotubes (Thermo Scientific, Cat No. 444202). In both rounds of selection, phage libraries were pre-incubated with streptavidin coated paramagnetic beads (Thermo Fisher Scientific, Cat. No. 11205D). […] Polyclonal phage preparations from round-2 selection outputs were analysed for trypsin binding using a time resolved fluorescence (TRF) binding assay. In this assay, polyclonal phage binding to biotinylated trypsin immobilised on neutravidin (Thermo Fisher Scientific, Cat. No 31000) coated Maxisorp™ plates (Thermo Scientific, Cat. No. 437111) was detected using a mouse anti-M13 antibody (GE Healthcare, Cat. No. 27-9420-01) followed by europium conjugated anti-mouse antibody (Perkin Elmer, Cat. No. AD0124). […]

The next test concerns the target T1, huASIC1a (Homo sapiens, UniProt P78348).
T1 sequence (P78348 whole entry, looked up): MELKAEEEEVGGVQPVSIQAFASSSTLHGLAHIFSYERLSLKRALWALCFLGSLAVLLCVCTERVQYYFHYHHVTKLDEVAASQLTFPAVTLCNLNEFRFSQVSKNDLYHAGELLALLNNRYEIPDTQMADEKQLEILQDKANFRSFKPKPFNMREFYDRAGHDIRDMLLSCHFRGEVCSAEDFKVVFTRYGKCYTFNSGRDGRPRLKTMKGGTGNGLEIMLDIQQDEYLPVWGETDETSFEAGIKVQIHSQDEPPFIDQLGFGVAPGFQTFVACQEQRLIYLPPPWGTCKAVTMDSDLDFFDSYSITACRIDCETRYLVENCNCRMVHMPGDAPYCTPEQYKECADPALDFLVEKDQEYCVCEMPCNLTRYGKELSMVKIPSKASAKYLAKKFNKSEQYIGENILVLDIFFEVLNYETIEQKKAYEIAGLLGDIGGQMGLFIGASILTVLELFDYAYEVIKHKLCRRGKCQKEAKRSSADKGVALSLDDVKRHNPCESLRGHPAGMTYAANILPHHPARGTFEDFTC
In words: QPatch automated whole-cell patch-clamp on HEK293 cells stably expressing huASIC1a. It is filed as cell-based. Conditions: full blocking 300 nM PcTx1 (positive control) perfused at end of each KnotBody or control incubation, then pH 6.0; one value per preceding sample. On the procedure:
Knottin Kv 1.3 and ASIC1a blockers expressed in the KnotBody format (see examples 6 and 7) were tested for their ability to inhibit the function of the ion channel targets. The effect of these KnotBodies on cells expressing the human Kv 1.3 (huKv1.3) or human ASIC1a channels was assessed using QPatch automated whole-cell patch-clamp electrophysiology (Sophion).
To functionally assess the ASIC1a KnotBodies, HEK293 cells stably expressing huASIC1a (Sophion) were analysed using a QPatch electrophysiology assay in the presence or absence of the KnotBody fusions (using KB_A12 as a recipient and replacing the original EETI-II donor as shown in Table 8). The “parental” KB_A12 with the EETI-II donor was used as a negative control. Internal and external physiological solutions were freshly prepared prior to the assay. […]
At the end of each KnotBody incubation and subsequent ASIC1a current activation, a full blocking concentration (300 nM) of the ASIC1a knottin inhibitor PcTx1 (positive control) was perfused onto the cell recording and a final activating pH 6.0 external solution was applied. The percentage remaining signal between activating pH 6.0 baseline (i.e. pre-KnotBody) and post-KnotBody incubation was determined.
For orientation: Patch clamp records ionic current or voltage across a cell membrane.

On to EETI-II [reference compound], for which, in the test with trypsin, the “binding to trypsin of phage” value is “no detectable binding to trypsin”.
Turning to “PcTx1: ASIC1a knottin inhibitor, positive control at 300 nM; SEQ ID NO: 20”, the “% current remaining PcTx1 (300 nM)” value in the test with huASIC1a was 2% and 1.9% and 2.7% and 3.8% and 3.6%.
